Assay results reported in patent US20220125903A1, “METHODS FOR IMPROVING THE EFFICACY OF A SURVIVIN THERAPEUTIC IN THE TREATMENT OF TUMORS” (IMMUNOVACCINE TECHNOLOGIES INC., priority 2018, published 2022).
Marks after values point to notes of the source that are not given here.

Key:
recurrent ovarian cancer = test: Phase 1b study: DPX-Survivac with low dose cyclophosphamide and epacadostat, tumor response by modified RECIST 1.1; format: in vivo, human; details: for CR (complete response), number of subjects / DCR (CR + PR + SD), disease control rate / DCR (CR + PR + SD), number of subjects / ORR (overall response rate), % of subjects / ORR (overall response rate), number of subjects / PR (partial response), % of subjects / PR (partial response), number of subjects / Partial response, % of subjects / Partial response, subjects/N / Progressive disease, % of subjects / Progressive disease, subjects/N / Stable disease, % of subjects / Stable disease, subjects/N / Tumor regressions, % of subjects / Tumor regressions, subjects/N / PD (progressive disease), % of subjects / PD (progressive disease), subjects/N / PR (partial response), subjects/N: with DPX-Survivac + low dose CPA
survivin = test: Cell mediated immunity: survivin-specific T cell response by ELISpot (Phase 1b); format: in vivo, human; details: with DPX-Survivac + low dose CPA
Method: Cell Mediated Immunity was determined by immunogenicity analysis and describe as the percentage of subjects with a positive immune response to one or more epitopes in the T cell activation therapeutic as well as changes in immune cell infiltration to the tumor. For ELISpot, antigen-specific response rate greater than Mean+2SD (typically>64 SFU/106 PBMC) obtained from pre-treatment and/or unstimulated/background cells was considered a positive response. Further, based on the magnitude of ELISpot response following treatment, subjects were classified as low (>64 to <512 SFU/106 PBMC) or high (>512 SFU/106 PBMC) immune responders to treatment or described as having a high and sustained immune response (3 separate time points >512 SFU/106 PBMC).

[1] = all epacadostat doses (N = 15), total target lesion size < 5 cm
[2] = all epacadostat doses (N = 38), total target lesion size ≥ 5 cm
[3] = epacadostat 100 mg (N = 5), sum of target lesion at baseline <5 cm
[4] = epacadostat 100 mg (N = 14), all subjects
[5] = epacadostat 100 mg BID (N = 5), total target lesion size < 5 cm
[6] = epacadostat 100 mg BID (N = 9), total target lesion size ≥ 5 cm
[7] = epacadostat 100 mg and 300 mg, Total (N = 53)
[8] = epacadostat 300 mg (N = 10), sum of target lesion at baseline <5 cm, partially monitored data
[9] = epacadostat 300 mg (N = 39), all subjects, partially monitored data
[10] = epacadostat 300 mg BID (N = 10), total target lesion size < 5 cm
[11] = epacadostat 300 mg BID (N = 29), total target lesion size ≥ 5 cm
[12] = epacadostat Total (N = 15), sum of target lesion at baseline <5 cm

## NS(=O)(=O)NCCNc1nonc1/C(=N\c1ccc(F)c(Br)c1)NO [Epacadostat]
Recurrent ovarian cancer; preliminary analysis, 100 mg vs 300 mg combined with DPX-Survivac and low dose CPA
  dose related activity of epacadostat: absence of dose related activity
Recurrent ovarian cancer; [1]
  CR (complete response), number of subjects: 0
  DCR (CR + PR + SD), disease control rate: (66.7%)
  DCR (CR + PR + SD), number of subjects: 10
  ORR (overall response rate), % of subjects: (26.7%)
  ORR (overall response rate), number of subjects: 4
  PR (partial response), % of subjects: (26.7%)
  PR (partial response), number of subjects: 4
Recurrent ovarian cancer; [2]
  CR (complete response), number of subjects: 0
  DCR (CR + PR + SD), disease control rate: (39.5%)
  DCR (CR + PR + SD), number of subjects: 15
  ORR (overall response rate), % of subjects: (2.6%)
  ORR (overall response rate), number of subjects: 1
  PR (partial response), % of subjects: (2.6%)
  PR (partial response), number of subjects: 1
Recurrent ovarian cancer; [3]
  Partial response, % of subjects: (60.0%)
  Partial response, subjects/N: 3/5
  Progressive disease, % of subjects: (0%)
  Progressive disease, subjects/N: 0/5
  Stable disease, % of subjects: (40.0%)
  Stable disease, subjects/N: 2/5
  Tumor regressions, % of subjects: (100%)
  Tumor regressions, subjects/N: 5/5
Recurrent ovarian cancer; [4]
  PD (progressive disease), % of subjects: (35.7%)
  PD (progressive disease), subjects/N: 5/14
  PR (partial response), % of subjects: (21.4%)
  PR (partial response), subjects/N: 3/14
  Tumor regressions, % of subjects: (35.7%)
  Tumor regressions, subjects/N: 5/14
Recurrent ovarian cancer; [5]
  CR (complete response), number of subjects: 0
  DCR (CR + PR + SD), disease control rate: (100%)
  DCR (CR + PR + SD), number of subjects: 5
  ORR (overall response rate), % of subjects: (60%)
  ORR (overall response rate), number of subjects: 3
  PR (partial response), % of subjects: (60.0%)
  PR (partial response), number of subjects: 3
Recurrent ovarian cancer; [6]
  CR (complete response), number of subjects: 0
  DCR (CR + PR + SD), disease control rate: (33.3%)
  DCR (CR + PR + SD), number of subjects: 3
  ORR (overall response rate), number of subjects: 0
  PR (partial response), number of subjects: 0
Recurrent ovarian cancer; [7]
  PD (progressive disease), % of subjects: (34.0%)
  PD (progressive disease), subjects/N: 18/53
  PR (partial response), % of subjects: (9.4%)
  PR (partial response), subjects/N: 5/53
  Tumor regressions, % of subjects: (20.1%)
  Tumor regressions, subjects/N: 11/53
Recurrent ovarian cancer; [8]
  Partial response, % of subjects: (10.0%)
  Partial response, subjects/N: 1/10
  Progressive disease, % of subjects: (50.0%)
  Progressive disease, subjects/N: 5/10
  Stable disease, % of subjects: (40.0%)
  Stable disease, subjects/N: 4/10
  Tumor regressions, % of subjects: (30.0%)
  Tumor regressions, subjects/N: 3/10
Recurrent ovarian cancer; [9]
  PD (progressive disease), % of subjects: (33.3%)
  PD (progressive disease), subjects/N: 13/39
  PR (partial response), % of subjects: (5.1%)
  PR (partial response), subjects/N: 2/39
  Tumor regressions, % of subjects: (15.4%)
  Tumor regressions, subjects/N: 6/39
Recurrent ovarian cancer; [10]
  CR (complete response), number of subjects: 0
  DCR (CR + PR + SD), disease control rate: (50.0%)
  DCR (CR + PR + SD), number of subjects: 5
  ORR (overall response rate), % of subjects: (10.0%)
  ORR (overall response rate), number of subjects: 1
  PR (partial response), % of subjects: (10.0%)
  PR (partial response), number of subjects: 1
Recurrent ovarian cancer; [11]
  CR (complete response), number of subjects: 0
  DCR (CR + PR + SD), disease control rate: (41.4%)
  DCR (CR + PR + SD), number of subjects: 12
  ORR (overall response rate), % of subjects: (3.4%)
  ORR (overall response rate), number of subjects: 1
  PR (partial response), % of subjects: (3.4%)
  PR (partial response), number of subjects: 1
Recurrent ovarian cancer; [12]
  Partial response, % of subjects: (26.7%)
  Partial response, subjects/N: 4/15
  Progressive disease, % of subjects: (33.3%)
  Progressive disease, subjects/N: 5/15
  Stable disease, % of subjects: (33.3%)
  Stable disease, subjects/N: 5/15
  Tumor regressions, % of subjects: (53.3%)
  Tumor regressions, subjects/N: 8/15
survivin; [3]
  Positive T cell response (survivin), % of subjects: (100%)
  Positive T cell response (survivin), subjects/evaluable: 4/4
survivin; [4]
  Positive T cell response (survivin), % of subjects: (100%)
  Positive T cell response (survivin), subjects/evaluable: 11/11
survivin; [7]
  Positive T cell response (survivin), % of subjects: (81.5%)
  Positive T cell response (survivin), subjects/evaluable: 22/27
survivin; [8]
  Positive T cell response (survivin), % of subjects: (25%)^a
  Positive T cell response (survivin), subjects/evaluable: 1/4
survivin; [9]
  Positive T cell response (survivin), % of subjects: (56.3%)^b
  Positive T cell response (survivin), subjects/evaluable: 9/16
